The results in this text go back to patent publication US20240182453A1, “NOVEL SUBSTITUTED PYRAZINE-CARBOXAMIDE DERIVATIVES” (Boehringer Ingelheim International GmbH, priority 2022, published 2024).

pIC50: −log10 of the molar value.

The target of this assay is human metabotropic Glutamate 4 receptor (mGluR4) (Homo sapiens (Human), UniProt Q14833). Nature of the assay: Assay A: in vitro testing of mGluR4 potency (glutamate-induced cAMP lowering, HTRF cAMP). To be noted: HEK293 cells overexpressing human mGluR4; 10 uM L-glutamic acid, 1 uM forskolin; compounds of the present invention. It is filed as cell-based. On the procedure: A. In Vitro Testing of mGluR4 Potency
Chain of human metabotropic Glutamate 4 receptor (mGluR4) (Q14833 33-912): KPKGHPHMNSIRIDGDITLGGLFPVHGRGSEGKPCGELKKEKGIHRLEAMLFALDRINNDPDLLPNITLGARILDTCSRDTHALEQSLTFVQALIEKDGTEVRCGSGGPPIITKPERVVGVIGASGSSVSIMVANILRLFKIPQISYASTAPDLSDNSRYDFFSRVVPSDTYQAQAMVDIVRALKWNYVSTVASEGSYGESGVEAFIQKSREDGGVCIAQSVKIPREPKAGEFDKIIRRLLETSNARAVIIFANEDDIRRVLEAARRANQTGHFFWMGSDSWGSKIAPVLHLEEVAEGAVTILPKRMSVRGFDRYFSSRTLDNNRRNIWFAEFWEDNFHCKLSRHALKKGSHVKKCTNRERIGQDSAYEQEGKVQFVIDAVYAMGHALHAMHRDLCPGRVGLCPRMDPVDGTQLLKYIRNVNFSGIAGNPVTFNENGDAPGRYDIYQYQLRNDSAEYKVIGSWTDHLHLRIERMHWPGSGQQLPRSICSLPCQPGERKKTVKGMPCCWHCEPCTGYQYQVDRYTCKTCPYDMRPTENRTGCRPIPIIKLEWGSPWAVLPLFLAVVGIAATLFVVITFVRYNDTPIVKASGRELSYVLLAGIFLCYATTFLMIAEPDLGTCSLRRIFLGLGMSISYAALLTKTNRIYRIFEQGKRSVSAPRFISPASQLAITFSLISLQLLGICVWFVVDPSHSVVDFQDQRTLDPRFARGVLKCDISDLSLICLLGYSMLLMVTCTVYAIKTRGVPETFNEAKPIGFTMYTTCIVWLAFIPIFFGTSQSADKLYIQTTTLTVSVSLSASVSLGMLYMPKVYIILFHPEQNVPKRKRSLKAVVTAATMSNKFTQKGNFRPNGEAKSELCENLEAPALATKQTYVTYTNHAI
The in vitro activity of the compounds according to the invention may be investigated as follows:
The HEK293 cell overexpressing the human metabotropic Glutamate 4 receptor are thawed at 37° C. and immediately diluted with cell culture medium. After centrifugation, the cell pellet is re-suspended in medium and then distributed from a stirred spinner flask into the wells of the assay plate. The plates are incubated for one hour at room temperature before they are incubated for 24 hours at 37° C./5% CO2. After washing the cells in the plate three times with 80 uL HBSS/HEPES buffer (10 uL buffer remained in the wells after washing), 5 uL per well of compounds diluted in HBSS/HEPES buffer containing 0.2% BSA (final concentration: 0.1%) and 1 mM IBMX (final concentration: 0.5 mM) are added to the wells of the assay plate. Thereafter 5 uL per well of L-Glutamic acid (final concentration: 10 uM), forskolin (final concentration: 1 uM) and 1 mM IBMX (final concentration: 0.5 mM) dissolved in HBSS/HEPES buffer containing 0.2% BSA (final concentration: 0.1%) are added to the assay plate (final DMSO concentration: 1%). Several wells of the assay plate are used either for the positive and the negative controls or for the cAMP standard curve. The assay plate is incubated for 30 minutes at room temperature. Then 5 ul per well of Anti-cAMP-Antibody-d2 solution and 5 ul per well of cAMP-Europium Cryptate dilution are added to all wells of the plate and the plate is incubated another 60 minutes light protected at room temperature. The emission at 615 nm and 665 nm (Excitation wavelength: 320 nm) are measured on the EnVision™ reader (Perkin Elmer). The ratio between the emission at 665 nm and 615 is calculated by the reader. The whole assay is performed in the dark or under green light.
The cAMP standard is prepared by diluting the cAMP stock solution with HBSS/Hepes buffer: 5 μl/well of the cAMP dilutions (in HBSS/Hepes buffer containing 1 mM IBMX and 0.2% BSA—final concentration: 0.5 mM IBMX and 0.1% BSA) are added to 10 ul/well HBSS/Hepes buffer plus 5 ul/well 4% DMSO in HBSS/Hepes containing 0.2% BSA (final DMSO concentration: 1%—like in the wells containing compounds) in the wells of the assay plate. The final cAMP concentrations in the assay plate are: 0, 0.17, 0.69, 2.78, 11.1, 44.5, 178, and 712 nM (two wells/cAMP concentration).
Each assay microtiter plate contained also wells with vehicle controls instead of compound as controls for L-Glutamic acid induced signal (negative control; 100% CTL; 10 uM L-Glutamic acid+1 uM forskolin+0.5 mM IBMX+1% DMSO) and wells with vehicle controls without L-Glutamic acid as controls for non-specific changes in signal (positive control; 0% CTL; 0 uM L-Glutamic acid+1 uM forskolin+0.5 mM IBMX+1% DMSO).
The analysis of the data is performed by the calculation the ratio between the emission at 665 nm and the emission at 615 nm (Em665/Em615 ratio). Thereafter the signals of the compounds are normalized using the positive and negative controls by the following formula:
PoC=100×((Signal Sample−Positive Control)/(Negative Control−Positive Control))
With `Cc1cnc(C(=O)N[C@H](c2nc3cc(F)ccc3n2CC(F)(F)F)C2CC2)cn1` [Example 27, N-[(S)-cyclopropyl[5-fluoro-1-(2,2,2-trifluoroethyl)-1H-1,3-benzodiazol-2-yl]methyl]-5-methylpyrazine-2-carboxamide], the pIC50 is 8.30.

Take `Cc1cnc(C(=O)N[C@H](c2nc3cc(F)ccc3n2C)C(C)C)cn1` [Example 64, N-[(1S)-1-(5-fluoro-1-methyl-1H-1,3-benzodiazol-2-yl)-2-methylpropyl]-5-methylpyrazine-2-carboxamide]: the pIC50 is 7.72.

`Cc1cnc(C(=O)N[C@H](c2nc3ccc(C(F)(F)F)cc3n2CC(F)F)C2CC2)cn1` [Example 138, N-[(S)-cyclopropyl[1-(2,2-difluoroethyl)-6-(trifluoromethyl)-1H-1,3-benzodiazol-2-yl]methyl]-5-methylpyrazine-2-carboxamide] showed a negative logarithm of the IC50 (pIC50) of 8.52.

The compound `CO[C@H](C)[C@H](NC(=O)c1cnc(C)cn1)c1nc2cc(C(F)(F)F)ccc2n1C` [Example 22, N-[(1R,2R)-2-methoxy-1-[1-methyl-5-(trifluoromethyl)-1H-1,3-benzodiazol-2-yl]propyl]-5-methylpyrazine-2-carboxamide] gave a pIC50 of 8.22.

Consider `COCCn1c([C@@H](NC(=O)c2cnc(C)cn2)C2CC2)nc2cc(Cl)c(F)cc21` [Example 21], for which the negative-log IC50 (pIC50) was 8.52.

Turning to `CCn1c(C(NC(=O)c2cnc(C)cn2)C2CCOC2)nc2cc(OC(F)(F)F)ccc21` (single isomer, unassigned) [Example 70-2, N-{[1-ethyl-5-(trifluoromethoxy)-1H-1,3-benzodiazol-2-yl](oxolan-3-yl)methyl}-5-methylpyrazine-2-carboxamide], the pIC50 was 7.70.

With `CCn1c(C(NC(=O)c2cnc(C)cn2)C2CCOC2)nc2cc(C(F)(F)F)ccc21` (single isomer, unassigned) [Example 139, N-{[1-ethyl-5-(trifluoromethyl)-1H-1,3-benzodiazol-2-yl](oxolan-3-yl)methyl}-5-methylpyrazine-2-carboxamide], the pIC50 was 7.96.

On to `Cc1cnc(C(=O)N[C@H](c2nc3c(C)c(C#N)ccc3n2C)C2CC2)cn1` [Example 45, N-[(S)-(5-cyano-1,4-dimethyl-1H-1,3-benzodiazol-2-yl)(cyclopropyl)methyl]-5-methylpyrazine-2-carboxamide], for which the pIC50 was 7.59.

Regarding `Cc1cnc(C(=O)N[C@H](c2nc3cc(C(F)(F)F)ccc3n2C)C2CC2)cn1` [Example 31, N-[(S)-cyclopropyl[1-methyl-5-(trifluoromethyl)-1H-1,3-benzodiazol-2-yl]methyl]-5-methylpyrazine-2-carboxamide], the pIC50 was 8.22.

Take `Cc1cnc(C(=O)N[C@@H](CC2CC2)c2nc3cc(F)ccc3n2CCOC(F)F)cn1` [Example 95, N-[(1S)-2-cyclopropyl-1-{1-[2-(difluoromethoxy)ethyl]-5-fluoro-1H-1,3-benzodiazol-2-yl}ethyl]-5-methylpyrazine-2-carboxamide]: the pIC50 is 7.89.

Regarding `O=C(N[C@@H](CC1CC1)c1nc2cc(F)ccc2n1CCOC(F)F)c1cnc(C(F)F)cn1` [Example 99, N-[(1S)-2-cyclopropyl-1-{1-[2-(difluoromethoxy)ethyl]-5-fluoro-1H-1,3-benzodiazol-2-yl}ethyl]-5-(difluoromethyl)pyrazine-2-carboxamide], the pIC50 is 8.05.

For the compound `CCn1c(C(NC(=O)c2cnc(C)cn2)C2CCOC2)nc2ccc(Cl)cc21` (single isomer, unassigned) [Example 163, N-[(6-chloro-1-ethyl-1H-1,3-benzodiazol-2-yl)(oxolan-3-yl)methyl]-5-methylpyrazine-2-carboxamide], the pIC50 is 7.57.

The compound `CCn1c(C(NC(=O)c2cnc(C)cn2)C2CCOC2)nc2cc(Cl)ccc21` (single isomer, unassigned) [Example 161, N-[(5-chloro-1-ethyl-1H-1,3-benzodiazol-2-yl)(oxolan-3-yl)methyl]-5-methylpyrazine-2-carboxamide] had a pIC50 of 7.85.

`COCCn1c([C@@H](NC(=O)c2cnc(C(F)F)cn2)[C@H]2CCOC2)nc2cc(C(F)(F)F)ccc21` [Example 102, 5-(difluoromethyl)-N-[(S)-[1-(2-methoxyethyl)-5-(trifluoromethyl)-1H-1,3-benzodiazol-2-yl][(3R)-oxolan-3-yl]methyl]pyrazine-2-carboxamide] had a pIC50 of 7.89.

`CCn1c([C@@H](NC(=O)c2cnc(C)cn2)C2CC2)nc2c(C)c(C#N)ccc21` [Example 38, N-[(S)-(5-cyano-1-ethyl-4-methyl-1H-1,3-benzodiazol-2-yl)(cyclopropyl)methyl]-5-methylpyrazine-2-carboxamide] gave a pIC50 of 8.30.

`COCCn1c([C@@H](NC(=O)c2cnc(C(F)(F)F)cn2)[C@@H](C)OC)nc2cc(OC(F)(F)F)ccc21` [Example 124, N-[(1R,2R)-2-methoxy-1-[1-(2-methoxyethyl)-5-(trifluoromethoxy)-1H-1,3-benzodiazol-2-yl]propyl]-5-(trifluoromethyl)pyrazine-2-carboxamide] gave a negative-log IC50 (pIC50) of 8.40.

For `COCCn1c([C@@H](NC(=O)c2cnc(C(F)F)cn2)[C@@H]2CCOC2)nc2cc(OC(F)(F)F)ccc21` [Example 23, 5-(difluoromethyl)-N-[(S)-[1-(2-methoxyethyl)-5-(trifluoromethoxy)-1H-1,3-benzodiazol-2-yl][(3S)-oxolan-3-yl]methyl]pyrazine-2-carboxamide], the pIC50 was 8.40.

On to `O=C(N[C@@H](CC1CC1)c1nc2cc(F)ccc2n1C1CC1)c1cnc(C(F)F)cn1` [Example 114, N-[(1S)-2-cyclopropyl-1-(1-cyclopropyl-5-fluoro-1H-1,3-benzodiazol-2-yl)ethyl]-5-(difluoromethyl)pyrazine-2-carboxamide], for which the pIC50 was 7.82.

`O=C(N[C@@H](CC1CC1)c1nc2cc(F)c(F)cc2n1C1CC1)c1cnc(C(F)F)cn1` [Example 118, N-[(1S)-2-cyclopropyl-1-(1-cyclopropyl-5,6-difluoro-1H-1,3-benzodiazol-2-yl)ethyl]-5-(difluoromethyl)pyrazine-2-carboxamide]: the pIC50 is 7.85.

In the case of `Cc1cnc(C(=O)N[C@H](c2nc3cc(C(F)(F)F)ccc3n2C)[C@@H](C)OC(F)F)cn1` [Example 61, N-[(1R,2R)-2-(difluoromethoxy)-1-[1-methyl-5-(trifluoromethyl)-1H-1,3-benzodiazol-2-yl]propyl]-5-methylpyrazine-2-carboxamide], the pIC50 is 8.10.

For the compound `COCCn1c([C@@H](NC(=O)c2cnc(C)cn2)C2CC2)nc2cc(F)ccc21` [Example 6, N-[(S)-cyclopropyl[5-fluoro-1-(2-methoxyethyl)-1H-1,3-benzodiazol-2-yl]methyl]-5-methylpyrazine-2-carboxamide], the negative logarithm of the IC50 (pIC50) is 8.15.

For the compound `COCCn1c(C(NC(=O)c2cnc(C(F)F)cn2)C2CCOC2)nc2cc(C(F)(F)F)ccc21` (stereo not shown) [Example 90-3], the pIC50 was 7.89.

Regarding `CO[C@H](C)[C@H](NC(=O)c1cnc(C(F)F)cn1)c1nc2cc(OC(F)F)ccc2n1C` [Example 80, N-[(1R,2R)-1-[5-(difluoromethoxy)-1-methyl-1H-1,3-benzodiazol-2-yl]-2-methoxypropyl]-5-(difluoromethyl)pyrazine-2-carboxamide], the pIC50 is 7.54.

The compound `COCCn1c(C(NC(=O)c2cnc(C)cn2)C2CCCO2)nc2cc(C(F)(F)F)ccc21` (stereo not shown) [Example 71-3, N-{[1-(2-methoxyethyl)-5-(trifluoromethyl)-1H-1,3-benzodiazol-2-yl](oxolan-2-yl)methyl}-5-methylpyrazine-2-carboxamide] had a pIC50 of 7.21.

In the case of `CCn1c(C(NC(=O)c2cnc(C)cn2)C2CCOC2)nc2ccc(C(F)(F)F)cc21` (single isomer, unassigned) [Example 147, N-{[1-ethyl-6-(trifluoromethyl)-1H-1,3-benzodiazol-2-yl](oxolan-3-yl)methyl}-5-methylpyrazine-2-carboxamide], the pIC50 is 7.96.

What is called pIC50 is −log10 of the IC50, conventionally taken in molar units. Read a low pIC50 as a high IC50.
